From patent US20240299535A1, “TARGETED GLYCOSAMINOGLYCAN-PARTICLES AND METHODS OF USE” (priority 2021, published 2024)

Columns and labels:
[1] = system: RAW 264.7 macrophages; assay: Endocytosis inhibition study of HEP-AuNP uptake (ICP-MS); type: cell-based, murine; conditions: for effect on nanoparticle cellular uptake / nanoparticle cellular uptake inhibition efficiencies: inhibitor screen, 1 h pre-incubation, nanoparticles 1.5 hours; for inhibitory effects for nanoparticle uptake: dose escalation, 0-31.4 μM chlorpromazine, 0-3.9 μM cytochalasin D
Description: Panel (A) is a schematic representation of the uptake pathway study: (i) non-specific endocytosis inhibition to determine whether nanoparticle cellular uptake is energy-dependent. (ii-iv) Specific endocytosis inhibitors for studying (ii) caveolae-mediated endocytosis, (iii) clathrin-mediated endocytosis, and (iv) macropinocytosis. Panels (B) to (D) are ICP-MS quantification of the nanoparticle cellular uptake in RAW 264.7 macrophages at 4° C.—Panel (B), in the presence of ATPase inhibitor sodium azide—Panel (C), or chemical endocytosis inhibitors of caveolae-mediated endocytosis, clathrin-mediated endocytosis, and […]—Panel (D). AuNPs modified with 13-kDa HEP (at 0.2 nM) were used as control without inhibitors at 37° C. Bars indicate mean±SD (n=3-4); statistical tests used one-way ANOVA (p<0.0001 (****); p<0.0021 (**); p<0.0332 (*).
We hypothesized that these nanoparticles might enter cells via endocytosis by one or more energy-dependent uptake pathways. Thus, we carried out a systematic endocytosis inhibition study to discern which uptake pathways were involved.
First, we pre-incubated the innate immune cells for 1 h with the endocytosis inhibitors. Then we added the nanoparticles and incubated them with the cells for 1.5 hours. We imaged the cells with a light microscope and quantified the nanoparticle uptake by ICP-MS (FIG. 2, Panel (D)).
(§1) We performed systematic dose escalation studies to assess the dose-response of the inhibitory effect and the cell toxicity of these two agents. Based on the previous dose screening experiments and published cell viability data the dose ranges were 0-31.4 μM and 0-3.9 μM for chlorpromazine and cytochalasin D, respectively.

[2] = system: DC 2.4 dendritic cells; assay: as above; type: cell-based, murine
Description: To test whether the HEP-coated nanoparticles could enter cells through clathrin-mediated endocytosis and macropinocytosis and/or phagocytosis in another immune cell line, we conducted further inhibition experiments in DC 2.4 dendritic cells. […] Additionally, we co-incubated chlorpromazine and cytochalasin D inhibitors with cells to test if there was any additive endocytosis inhibitory effect.

[3] = system: RAW264.7 macrophages; assay: Cell viability assays with endocytosis inhibitors; conditions: 0-31.4 μM chlorpromazine, 0-3.9 μM cytochalasin D
Description: as §1

[4] = system: RAW 264.7 macrophages; assay: HEP structural analog competition of HEP-AuNP uptake (ICP-MS); type: cell-based, murine; conditions: pre-incubation with competitor
Description: To quantify the nanoparticles' cellular interactions, we performed quantitative ICP-MS and corroborated the results qualitatively with light microscopy. […] No significant competition with the remaining structural analogs was observed.

[5] = system: DC 2.4 dendritic cells; assay: CS A competition of HEP-AuNP uptake (ICP-MS); type: cell-based, murine; conditions: 1 hour pre-incubation, nanoparticles 2.5 hour; non-cytotoxic doses
Description: Next, we expanded the structural analog competition study to DC 2.4 dendritic cells. […] We quantified the competition efficiency by ICP-MS and corroborated the results with light microscopy.

[6] = system: cell uptake of HEP-AuNPs; assay: CS A competition as a function of time and concentration (ICP-MS); type: cell-based
Description: We further assessed the competition effect of CS A as a function of time and concentration at non-cytotoxic levels. […] These competition experiments with GAG structural analog polymers imply that CS A can substitute to some degree as a ligand for HEP for the internalization receptor(s).

[7] = system: RAW 264.7 macrophages
Description: We next investigated whether the CS A inhibitory effect of HEP-AuNP uptake was due to a potential toxicity effect of the CS A preparation, which was extracted from a mammalian source.

In the case of `O=C(N/N=C/c1ccc(O)c(O)c1)c1cc2ccccc2cc1O` [Dynasore], the “effect on nanoparticle cellular uptake” value [1] is reported as “did not reduce the nanoparticle cellular uptake”.

For `CCN(c1nc(N)c(C(=O)N=C(N)N)nc1Cl)C(C)C` [EIPA, 5-(N-ethyl-N-isopropyl) amiloride], the “effect on nanoparticle cellular uptake” value [1] was “did not reduce the nanoparticle cellular uptake”.

In the case of `CCCCC[C@@H](O)[C@H]1C(=O)O[C@H](C)[C@@H](O)/C=C/C=C/C=C/C=C/C=C(\C)[C@@H](O)C[C@H](O)C[C@H](O)C[C@H](O)C[C@H](O)C[C@H](O)C[C@@H]1O` [Filipin], the “effect on nanoparticle cellular uptake” value [1] is reported as “did not reduce the nanoparticle cellular uptake”.

For `CCN1C(=O)C=CC1=O` [N-ethylmaleimide], the “effect on nanoparticle cellular uptake” value [1] was “did not reduce the nanoparticle cellular uptake”.

For `CCN(CC)CCCC(C)Nc1ccnc2cc(Cl)ccc12` (centres unmarked) [chloroquine], the “nanoparticle cellular uptake inhibition efficiencies” value [1] was ~12%.

In the case of `CN(C)CCCN1c2ccccc2Sc2ccc(Cl)cc21` [chlorpromazine], the “inhibitory effects for nanoparticle uptake” value [1] is reported as “approximately 70%”, the “nanoparticle cellular uptake inhibition efficiencies” value [1] is reported as “approximately 73%” and the “reduction of HEP-AuNP uptake” value [2] is reported as “approximately 77%”. The “cytotoxicity of inhibitor doses” value [3] was “not cytotoxic”.

In the case of `C=C1[C@@H](C)[C@H]2[C@H](Cc3ccccc3)NC(=O)[C@]23[C@H](OC(C)=O)/C=C/[C@@](C)(O)C(=O)[C@@H](C)C/C=C/[C@H]3[C@@H]1O` [cytochalasin D], the “inhibitory effects for nanoparticle uptake” value [1] is reported as “approximately 51%”, the “nanoparticle cellular uptake inhibition efficiencies” value [1] is reported as ~24% and the “reduction of HEP-AuNP uptake” value [2] is reported as “approximately 77%”. The “cytotoxicity of inhibitor doses” value [3] was “not cytotoxic”.

In the case of `CN(C)CCCN1c2ccccc2CCc2ccccc21` [imipramine], the “nanoparticle cellular uptake inhibition efficiencies” value [1] is reported as ~8%.

With `[N-]=[N+]=[N-]` [sodium azide] the “reduction of cellular uptake of HEP-AuNPs” value ([1]; 0.1% w/v sodium azide) was “approximately 22%”.

For Chondroitin Sulfate A [CS A], the “reduction of cellular uptake of HEP-AuNPs vs no-competitor group” value (from here on “reduction … vs no-competitor group”) [4] was ~43%, the “nanoparticle uptake vs no-competitor group” value [5] was “lower nanoparticle uptake” and the “IC50 (inhibitor dose-response of HEP-AuNP uptake)” value [6] was 500 µg/mL. The “inhibitory effect over time” value ([6]; 1 mg/mL) was “persisted throughout time”, the “suppression of cellular uptake of HEP-AuNPs” value ([6]; 2 mg/mL) was “up to 9 fold” and the “effect on cell viability” value [7] was “did not affect cell viability”.

In the case of Chondroitin Sulfate C [CS C], the “reduction … vs no-competitor group” value [4] is reported as “approximately 15%”.

With heparin the “reduction … vs no-competitor group” value [4] was “approximately 18%”.
